# How the values were obtained:
# [1] = AUC (0 to 24 hrs) in mouse plasma at 100 mg/kg, po; format: ADME, organism-based; set-up: dose 100 mg/kg, time < 24 hr, route oral
# [2] = Cmax in mouse plasma at 100 mg/kg, po; format: ADME, organism-based; set-up: dose 100 mg/kg, route oral
# [3] = Tmax in mouse plasma at 100 mg/kg, po; format: ADME, organism-based
# [4] = Drug uptake in Balb/c mouse plasma at 10 to 100 mg/kg, po; format: ADME, organism-based; conditions: in vivo
# Mus musculus [5] = experiment: (§1) AUC (0 to 8 hrs) in mouse at 1 mg/kg, po administered as cassette dose; format: ADME, organism-based; set-up: time < 8 hr, dose 1 mg/kg, route oral; conditions: in vivo, 8 h
# [6] = Drug uptake in po dosed Balb/c mouse ear; format: ADME, organism-based; conditions: in vivo
# Mus musculus [7] = experiment: In vivo inverse agonist activity at RORgammat in Balb/c mouse assessed as inhibition of IL-23-induced IL-17a gene expression at 100 mg/kg, po administered 30 mins before and 8 hrs after IL-23 injection in ears intradermally measured after 24 hrs by qRT-PCR analysis relative to control; format: functional
# [8] = Drug uptake in po dosed Balb/c mouse ear after 8 hrs; format: ADME, organism-based; conditions: in vivo
# Homo sapiens [9] = organism: Homo sapiens; experiment: Selectivity ratio of IC50 for RORbeta in human Jurkat cells to IC50 for RORgammat in human Jurkat cells; format: cell-based
# [10] = molecular target: T1, Nuclear receptor ROR-gamma (Homo sapiens, UniProt P51449); experiment: Displacement of BODIPY-cholesterol from human His-tagged RORgammat after 20 mins by TR-FRET assay
# T1 sequence (P51449 whole entry): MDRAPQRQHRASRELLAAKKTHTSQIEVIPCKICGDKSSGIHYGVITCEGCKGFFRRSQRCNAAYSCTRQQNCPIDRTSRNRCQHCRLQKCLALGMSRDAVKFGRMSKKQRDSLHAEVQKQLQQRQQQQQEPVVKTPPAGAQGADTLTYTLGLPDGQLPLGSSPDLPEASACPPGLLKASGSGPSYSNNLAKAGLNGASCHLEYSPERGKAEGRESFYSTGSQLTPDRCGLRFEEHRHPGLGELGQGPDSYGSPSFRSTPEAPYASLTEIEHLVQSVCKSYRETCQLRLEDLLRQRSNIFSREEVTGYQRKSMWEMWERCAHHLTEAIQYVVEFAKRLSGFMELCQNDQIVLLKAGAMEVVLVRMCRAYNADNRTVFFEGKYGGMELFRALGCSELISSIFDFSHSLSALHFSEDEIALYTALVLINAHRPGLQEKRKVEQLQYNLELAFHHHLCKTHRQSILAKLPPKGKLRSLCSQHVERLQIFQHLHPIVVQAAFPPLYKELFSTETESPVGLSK
# [11] = molecular target: T2, Nuclear receptor ROR-gamma (Homo sapiens) (UniProt P51449); experiment: Displacement of 25-[3H2]hydroxycholesterol from GST-tagged RORgammat (unknown origin) at 10 uM
# T2 sequence (whole entry): T1 sequence (P51449 whole entry)
# [12] = molecular target: T1, Nuclear receptor ROR-gamma; experiment: Inverse agonist activity at RORgammat in human Jurkat cells assessed as inhibition of transcriptional activity after overnight incubation by human IL-17 ROR response element driven-bright-glo luciferase reporter gene assay; format: cell-based
# Homo sapiens [13] = organism: Homo sapiens; experiment: Selectivity ratio of IC50 for RORalpha in human Jurkat cells to IC50 for RORgammat in human Jurkat cells; format: cell-based
# [14] = as §1; format: ADME, organism-based; set-up: time < 8 hr, dose 1 mg/kg, route oral; conditions: in vivo
SMILES,IC50 [10] [µM],IC50 [12] [µM],AUC(0-t) at 8 h [14] [ng·h/mL],further results
COc1ccc([C@H](C(=O)Nc2cc(F)c([Si](C)(C)C)c(F)c2)N(C)C(=O)c2cc(O)no2)cc1,–,–,–,AUC(0-t) at 24 h [1]: 47400 ng·h/mL; Cmax [2]: 9120 ng/mL; Tmax [3]: 1 h; Drug uptake [4]: Active; AUC (Mus musculus [5]): 370 ng·h/mL; Drug uptake [6]: Dose-dependent effect and Tde; inhibition in vivo at 100 mg/kg (Mus musculus [7]): 71%; Drug uptake [8]: Active
COc1ccc(C(C(=O)Nc2ccc(C(C)C)cc2)N(C)C(=O)c2ccc(O)nc2)cc1 (racemic),0.2,1.6,–,Ratio IC50 (Homo sapiens [9]): > 15; inhibition [11]: 93%; Ratio IC50 (Homo sapiens [13]): > 15
COc1ccc(C(C(=O)Nc2cc(F)c([Si](C)(C)C)c(F)c2)N(C)C(=O)c2cc(O)no2)cc1 (racemic),–,–,1510,–
COc1ccc(C(C(=O)Nc2ccc([Si](C)(C)C)cc2)N(C)C(=O)c2cc(O)no2)cc1 (racemic),–,–,1590,–

# Second part, led by results:
IC50 [10] [µM],IC50 [12] [µM],AUC(0-t) at 8 h [14] [ng·h/mL],SMILES,further results
–,–,86,COc1ccc(C(C(=O)Nc2ccc([Si](C)(C)C)cc2)N(C)C(=O)c2ccc(O)nc2)cc1 (racemic),–
> 10,> 30,–,COc1ccc(C(CC(=O)Nc2ccc(C(C)(C)C)cc2)N(C)C(=O)c2ccc(=O)[nH]c2)cc1 (racemic),–
> 10,> 30,–,COc1ccc(CC(C(=O)Nc2ccc(C(C)(C)C)cc2)N(C)C(=O)c2ccc(=O)[nH]c2)cc1 (racemic),–
> 10,> 30,–,COc1ccc(C(C(=O)N(C)c2ccc(C(C)(C)C)cc2)N(C)C(=O)c2ccc(=O)[nH]c2)cc1 (racemic),–

# From ChEMBL document CHEMBL4184189, “Discovery of orally efficacious RORγt inverse agonists, part 1: Identification of novel phenylglycinamides as lead scaffolds” (Bioorg Med Chem, 2018)
